Assay results as given in publication PMC10967832, “Cloflucarban Illuminates Specificity and Context-Dependent Activation of the PINK1–Parkin Pathway by Mitochondrial Complex Inhibition” (Biomolecules, 2024).

Molecular target: T1, mitochondrial complex I (Bos taurus, UniProt P03887+P17694+P25708+P42026)
T1 construct: gene MT-ND1; native complex immunocaptured from solubilized bovine heart mitochondria
Assay: NADH oxidation, […] nm, immunocaptured complex
Assay type: biochemical
Conditions: ubiquinone 1, phospholipids, room temperature

| SMILES | % activity relative to vehicle at 50 μM [%] |
| --- | --- |
| Cc1nc(-c2ccc(-c3ccc(C(=O)N4CCc5cc6c(cc54)C4(CCN(C)CC4)CO6)cc3)c(C)c2)no1 [SB-224289] | 60 |
| CO/C(=C/C(N)=O)[C@H](C)[C@H](/C=C/c1csc(-c2csc([C@@H](C)/C=C/C=C/C(C)C)n2)n1)OC [myxothiazole] | 48 |
